Reference: the NIST ThermoML archive (doi:10.1021/je800503d)
± gives the expanded uncertainty stated by the source.

Details: 298.15 K; 101.33 kPa; Liquid; Vibrating tube method

SMILES	mass density [kg/m3]
COCCOCCOCCOCCOC [2,5,8,11,14-pentaoxapentadecane]	1006.2 ± 0.24
COCCOCCOCCOC [2,5,8,11-tetraoxadodecane]	980.42 ± 0.23
CCO [ethanol]	785.04 ± 0.13
CCCCCCCCCCCCCCCC [hexadecane]	770.01 ± 0.24
